# Source: ChEMBL document CHEMBL4196127, “Discovery of AM-6226: A Potent and Orally Bioavailable GPR40 Full Agonist That Displays Efficacy in Nonhuman Primates” (ACS Med Chem Lett, 2018)
# What was measured:
# [1] = biological target: T1, Free fatty acid receptor 1 (Homo sapiens, UniProt O14842); experiment: Agonist activity at GPR40 (unknown origin) expressed in CHO cells incubated for 2 hrs measured over 20 secs in presence of human serum albumin by aequorin based luminescence assay; format: functional, cell-based
# [2] = biological target: T1, Free fatty acid receptor 1; experiment: Agonist activity at GPR40 (unknown origin) expressed in CHO cells incubated for 2 hrs measured over 20 secs in presence of human serum albumin by aequorin based luminescence assay relative to AM-1638; format: functional, cell-based
# [3] = Clearance in rat at 0.5 mg/kg, iv; conditions: in vivo
# [4] = Fraction unbound in rat plasma at 0.5 mg/kg, iv or 2 mg/kg, po; format: ADME, organism-based
# [5] = test system: Rattus norvegicus; experiment: Volume of distribution at steady state in rat at 0.5 mg/kg, iv; conditions: in vivo
# [6] = Cmax in rat at 2 mg/kg, po; format: ADME, organism-based; set-up: dose 2 mg/kg, route oral; conditions: in vivo
# [7] = Oral bioavailability in rat at 2 mg/kg; format: ADME, organism-based; conditions: in vivo
# [8] = (§1) AUC in rat at 2 mg/kg, po; format: ADME, organism-based; conditions: in vivo
# [9] = Half life in rat at 0.5 mg/kg, iv; format: ADME, organism-based; conditions: in vivo
# [10] = test system: Cynomolgus monkey; experiment: Antidiabetic activity in prediabetic high fat feed cynomolgus monkey assessed as reduction in plasma glucose AUC at 10 mg/kg, po administered via gavage 2 hrs prior to glucose challenge by oral glucose tolerance test; format: functional, Macaca fascicularis; set-up: scale not given: the % may be the effect or the level left
# [11] = Oral bioavailability in dog at 2 mg/kg; format: ADME, organism-based, Canis lupus familiaris; conditions: in vivo
# [12] = Clearance in dog at 0.5 mg/kg, iv; conditions: in vivo
# [13] = AUC in dog at 2 mg/kg, po; format: ADME, organism-based, Canis lupus familiaris; conditions: in vivo
# [14] = Clearance in cynomolgus monkey at 0.5 mg/kg, iv; conditions: in vivo
# [15] = AUC in cynomolgus monkey at 10 mg/kg, po; format: ADME, organism-based, Macaca fascicularis; conditions: in vivo
# [16] = Fraction unbound in dog plasma at 0.5 mg/kg, iv; format: ADME, organism-based, Canis lupus familiaris
# [17] = Half life in dog at 0.5 mg/kg, iv; format: ADME, organism-based, Canis lupus familiaris; conditions: in vivo
# [18] = Fraction unbound in cynomolgus monkey plasma at 0.5 mg/kg, iv; format: ADME, organism-based, Macaca fascicularis
# [19] = test system: Canis familiaris; experiment: Volume of distribution at steady state in dog at […]; format: ADME, organism-based, Canis lupus familiaris; conditions: in vivo
# [20] = Oral bioavailability in cynomolgus monkey at 10 mg/kg; format: ADME, organism-based, Macaca fascicularis; conditions: in vivo
# [21] = test system: Cynomolgus monkey; experiment: Volume of distribution at steady state in cynomolgus monkey at […]; format: ADME, organism-based, Macaca fascicularis; conditions: in vivo
# [22] = Half life in cynomolgus monkey at 0.5 mg/kg, iv; format: ADME, organism-based, Macaca fascicularis; conditions: in vivo
# [23] = test system: Rattus norvegicus; experiment: Clearance in rat at 0.5 mg/kg, iv; conditions: in vivo
# [24] = test system: Rattus norvegicus; experiment: as §1; format: ADME, organism-based; conditions: in vivo
# T1 sequence (O14842 whole entry): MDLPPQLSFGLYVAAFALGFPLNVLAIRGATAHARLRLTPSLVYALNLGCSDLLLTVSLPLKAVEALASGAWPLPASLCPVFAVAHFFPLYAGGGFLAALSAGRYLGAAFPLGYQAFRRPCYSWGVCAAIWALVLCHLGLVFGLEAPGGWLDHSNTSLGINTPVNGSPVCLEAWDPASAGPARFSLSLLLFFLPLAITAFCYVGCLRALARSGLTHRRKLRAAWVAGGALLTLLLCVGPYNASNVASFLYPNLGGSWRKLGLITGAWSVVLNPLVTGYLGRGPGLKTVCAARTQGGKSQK
compound,measurement,setting,value
COc1ccc(F)c(-c2ccc(COc3cccc(CCC(=O)O)c3)cc2[C@@H]2CCCC2(C)C)c1,EC50,[1],450 nM
same,Efficacy,[2],120%
CC[C@@H](CC(=O)O)c1cccc(OCc2ccc(-c3cc(OC)ccc3F)c([C@@H]3CCCC3(C)C)c2)c1,EC50,[1],1960 nM
same,Efficacy,[2],76%
CC[C@H](CC(=O)O)c1ccc(F)c(OCc2ccc(-c3cc(OC)ccc3F)c(C3=CCCC3(C)C)c2)c1,EC50,[1],740 nM
same,Efficacy,[2],82%
CC[C@H](CC(=O)O)c1cc(OCc2ccc(-c3cc(OC)ccc3F)c([C@@H]3CCCC3(C)C)c2)ccc1F,EC50,[1],210 nM
same,Efficacy,[2],100%
COc1ccc(F)c(-c2ccc(COc3cccc([C@@H](CC(=O)O)C4CC4)c3)cc2C2CCCC2(C)C)c1 (mixture of isomers),EC50,[1],140 nM
same,Efficacy,[2],97%
COc1ccc(F)c(-c2ccc(COc3cccc([C@@H](CC(=O)O)C4CC4)c3)cc2[C@H]2CCCC2(C)C)c1,EC50,[1],310 nM
same,Efficacy,[2],100%
CCC[C@H](CC(=O)O)c1cccc(OCc2ccc(-c3cc(OC)ccc3F)c([C@@H]3CCCC3(C)C)c2)c1,EC50,[1],110 nM
same,Efficacy,[2],100%
COc1ccc(F)c(-c2ccc(COc3cccc([C@H](C)CC(=O)O)c3)cc2[C@@H]2CCCC2(C)C)c1,EC50,[1],170 nM
same,Efficacy,[2],106%
COc1ccc(F)c(-c2ccc(COc3cccc([C@@H](CC(=O)O)C4CC4)c3F)cc2[C@@H]2CCCC2(C)C)c1,clearance,[3],8.17 mL/min/kg
same,fraction unbound,[4],0.003
same,Vdss,[5],1.9 L/kg
same,EC50,[1],100 nM
same,Cmax,[6],360 nM
same,bioavailability,[7],32%
same,Efficacy,[2],100%
same,AUC,[8],2.43 µM·h
same,half-life,[9],3.3 h
"CC[C@H](CC(=O)O)c1cccc(OCc2ccc(-c3cc(OC)ccc3F)c(C3CCCC3(C)C)c2)c1F (single isomer, unassigned)",Activity,[10],18%
same,clearance,[3],5.5 mL/min/kg
same,fraction unbound,[4],0.003
same,bioavailability,[11],62%
same,Vdss,[5],0.81 L/kg
same,clearance,[12],3.5 mL/min/kg
same,EC50,[1],120 nM
same,AUC,[13],11.6 µM·h
same,clearance,[14],3.67 mL/min/kg
same,Cmax,[6],1180 nM
same,AUC,[15],80.4 µM·h
same,fraction unbound,[16],0.034
same,half-life,[17],4.1 h
same,fraction unbound,[18],0.017
same,Vdss,[19],0.68 L/kg
same,bioavailability,[20],91%
same,Vdss,[21],0.5 L/kg
same,bioavailability,[7],72%
same,Efficacy,[2],104%
same,half-life,[22],3.3 h
same,AUC,[8],8.22 µM·h
same,half-life,[9],2 h
CC[C@H](CC(=O)O)c1cc(F)cc(OCc2ccc(-c3cc(OC)ccc3F)c([C@@H]3CCCC3(C)C)c2)c1,EC50,[1],90 nM
same,Efficacy,[2],105%
COc1ccc(F)c(-c2ccc(COc3cccc([C@@H](CC(=O)O)CC4CC4)c3)cc2[C@@H]2CCCC2(C)C)c1,EC50,[1],100 nM
same,Efficacy,[2],98%
CC[C@H](CC(=O)O)c1cccc(OCc2ccc(-c3cc(OC)ccc3F)c([C@@H]3CCCC3(C)C)c2)c1,clearance,[3],11.2 mL/min/kg
same,fraction unbound,[4],0.006
same,Vdss,[5],1.12 L/kg
same,EC50,[1],80 nM
same,Cmax,[6],370 nM
same,bioavailability,[7],29%
same,Efficacy,[2],102%
same,AUC,[8],1.74 µM·h
same,half-life,[9],2.1 h
COc1ccc(F)c(-c2ccc(COc3cccc([C@@H](CC(=O)O)C4CCC4)c3)cc2[C@@H]2CCCC2(C)C)c1,EC50,[1],90 nM
same,Efficacy,[2],100%
N[C@@H](CC(=O)N1CCn2c(nnc2C(F)(F)F)C1)Cc1cc(F)c(F)cc1F [SITAGLIPTIN],Activity,[10],13%
COc1ccc(F)c(-c2ccc(COc3cccc([C@@H](CC(=O)O)C4CC4)c3)cc2C2=CCCC2(C)C)c1,CL,[23],15.2 mL/min/kg
same,fraction unbound,[4],0.01
same,Vdss,[5],1.1 L/kg
same,clearance,[14],13.5 mL/min/kg
same,AUC,[15],18.8 µM·h
same,fraction unbound,[18],0.012
same,bioavailability,[20],71%
same,Vdss,[21],2 L/kg
same,Efficacy,[2],100%
same,AUC,[24],15.1 µM·h
COc1ccc(F)c(-c2ccc(COc3cccc([C@@H](CC(=O)O)C4CC4)c3)cc2[C@@H]2CCCC2(C)C)c1,clearance,[3],12 mL/min/kg
same,fraction unbound,[4],0.006
same,Vdss,[5],1.68 L/kg
same,EC50,[1],80 nM
same,Cmax,[6],250 nM
same,Efficacy,[2],101%
same,AUC,[8],1.83 µM·h
COc1ccc(F)c(-c2ccc(COc3cccc([C@H](CC(=O)O)C4CC4)c3)cc2[C@@H]2CCCC2(C)C)c1,EC50,[1],1830 nM
same,Efficacy,[2],89%
